Data: patent publication US6737383B1, “Herbicidal oxadiazolidines” (priority 1999, dated 2004)

Key:
bedstraw = experiment: Test B pre/postemergence bedstraw; type: in vivo, Galium aparine; settings: Preemergence
Summary of the method: (§1)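 Test chemicals in a non-phytotoxic solvent mixture with surfactant were sprayed preemergence onto planted seeds and postemergence onto plants 2 to 18 cm tall (1- to 4-leaf stage). After twelve to sixteen days in a greenhouse, injury was visually rated against untreated controls from 0 (no effect) to 10 (complete control).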

smallflower flatsedge = experiment: Test B flood test smallflower flatsedge; type: in vivo, Cyperus difformis
Summary of the method: (§2)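 Read-out is a visual response score from 0 (no effect) to 10 (complete control), assigned by comparison with untreated controls. Treatment was applied at the 2-leaf stage, and plants stayed in the greenhouse for twelve to sixteen days before scoring.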

crabgrass = experiment: Test B pre/postemergence crabgrass; type: in vivo, Digitaria sanguinalis
Summary of the method: as §1

corn = experiment: Test B pre/postemergence corn; type: in vivo, Zea mays
Summary of the method: as §1

rice = experiment: Test B flood test rice; type: in vivo, Oryza sativa
Summary of the method: as §2

cocklebur = experiment: Test B pre/postemergence cocklebur; type: in vivo, Xanthium strumarium
Summary of the method: as §1

blackgrass = experiment: Test B pre/postemergence blackgrass; type: in vivo, Alopecurus myosuroides
Summary of the method: as §1

duck salad = experiment: Test B flood test duck salad; type: in vivo, Heteranthera limosa
Summary of the method: as §2

wild oat = experiment: Test B pre/postemergence wild oat; type: in vivo, Avena fatua
Summary of the method: as §1

surinam grass = experiment: Test B pre/postemergence surinam grass; type: in vivo, Brachiaria decumbens
Summary of the method: as §1

purple nutsedge = experiment: Test B pre/postemergence purple nutsedge; type: in vivo, Cyperus rotundus
Summary of the method: as §1

bamyardgrass = experiment: Test B flood test barnyardgrass; type: in vivo, Echinochloa crus-galli
Summary of the method: as §2

morningglory = experiment: Test B pre/postemergence morningglory; type: in vivo, Ipomoea hederacea
Summary of the method: as §1

giant foxtail = experiment: Test B pre/postemergence giant foxtail; type: in vivo, Setaria faberii
Summary of the method: as §1

wheat = experiment: Test B pre/postemergence wheat; type: in vivo, Triticum aestivum
Summary of the method: as §1

velvetleaf = experiment: Test B pre/postemergence velvetleaf; type: in vivo, Abutilon theophrasti
Summary of the method: as §1

[1] = Rate 62 g/ha, flood test species, Pre-emergence, visual evaluation after twelve to sixteen days
[2] = Rate 125 g/ha, under heading Pre-emergence, flood test species, visual evaluation after twelve to sixteen days
[3] = Rate 250 g/ha, Pre-emergence (flood test species), scale 0 to 10, 0 is no effect, 10 is complete control
[4] = Rate 500 g/ha, Pre-emergence, flood test species, scale 0 to 10 (0 no effect, 10 complete control)
[5] = Postemergence, Rate 125 g/ha, scale 0 to 10, 0 is no effect, 10 is complete control
[6] = Postemergence, Rate 250 g/ha, scale 0 to 10, 0 is no effect, 10 is complete control
[7] = Postemergence, Rate 500 g/ha, scale of 0 to 10 where 0 is no effect and 10 is complete control
[8] = Preemergence, Rate 62 g/ha, scale 0 to 10 (0 no effect, 10 complete control)
[9] = Preemergence, Rate 125 g/ha, scale of 0 to 10 where 0 is no effect and 10 is complete control
[10] = Preemergence, Rate 250 g/ha, scale 0 to 10, 0 is no effect, 10 is complete control
[11] = Preemergence, Rate 500 g/ha, scale 0 to 10, 0 is no effect, 10 is complete control
[12] = Rate 62 g/ha, Postemergence, scale of 0 to 10 where 0 is no effect and 10 is complete control
[13] = Preemergence, Rate 250 g/ha, scale of 0 to 10 where 0 is no effect and 10 is complete control

C=CC[Si](C)(C)Cn1c(=O)on(C(=O)N(c2ccc(Cl)cc2)C(C)C)c1=O [Compound 414]
Plant response rating, Bedstraw (bedstraw; Rate 62 g/ha, scale 0 to 10 (0 no effect, 10 complete control)): 0 | Plant response rating, Bedstraw (bedstraw; Rate 125 g/ha, scale of 0 to 10 where 0 is no effect and 10 is complete control): 0 | Bedstraw plant response rating (bedstraw; Rate 250 g/ha, scale of 0 to 10 where 0 is no effect and 10 is complete control): 0 | Bedstraw plant response rating (bedstraw; Rate 500 g/ha, scale 0 to 10, 0 is no effect, 10 is complete control): 0 | Plant response rating, S. Flatsedge (0 to 10 scale, 0 is no effect, 10 is complete control) (smallflower flatsedge; [1]): 0 | S. Flatsedge plant response rating (0 to 10 scale, 0 is no effect, 10 is complete control) (smallflower flatsedge; [2]): 0 | S. Flatsedge plant response rating (smallflower flatsedge; [3]): 0 | S. Flatsedge plant response rating (smallflower flatsedge; [4]): 0 | Plant response rating, Crabgrass (crabgrass; [5]): 3 | Plant response rating, Crabgrass (crabgrass; [6]): 6 | Crabgrass plant response rating (crabgrass; [7]): 9 | Plant response rating, Crabgrass (crabgrass; [8]): 2 | Plant response rating, Crabgrass (crabgrass; [9]): 7 | Crabgrass plant response rating (crabgrass; [10]): 9 | Crabgrass plant response rating (crabgrass; [11]): 10 | Crabgrass plant response rating (crabgrass; [12]): 1 | Plant response rating, Corn (corn; [5]): 0 | Plant response rating, Corn (corn; [6]): 0 | Corn plant response rating (corn; [7]): 0 | Plant response rating, Corn (corn; [8]): 0 | Plant response rating, Corn (corn; [9]): 0 | Corn plant response rating (corn; [10]): 0 | Corn plant response rating (corn; [11]): 0 | Corn plant response rating (corn; [12]): 0 | Plant response rating, Rice (0 to 10 scale, 0 is no effect, 10 is complete control) (rice; [1]): 0 | Rice plant response rating (0 to 10 scale, 0 is no effect, 10 is complete control) (rice; [2]): 0 | Rice plant response rating (rice; [3]): 0 | Rice plant response rating (rice; [4]): 0 | Plant response rating, Cocklebur (cocklebur; [5]): 0 | Plant response rating, Cocklebur (cocklebur; [6]): 0 | Cocklebur plant response rating (cocklebur; [7]): 0 | Plant response rating, Cocklebur (cocklebur; [8]): 0 | Plant response rating, Cocklebur (cocklebur; [9]): 0 | Cocklebur plant response rating (cocklebur; [10]): 0 | Cocklebur plant response rating (cocklebur; [11]): 0 | Cocklebur plant response rating (cocklebur; [12]): 0 | Plant response rating, Blackgrass (blackgrass; [5]): 2 | Plant response rating, Blackgrass (blackgrass; [6]): 5 | Blackgrass plant response rating (blackgrass; [7]): 7 | Plant response rating, Blackgrass (blackgrass; [8]): 0 | Plant response rating, Blackgrass (blackgrass; [9]): 0 | Blackgrass plant response rating (blackgrass; [13]): 3 | Blackgrass plant response rating (blackgrass; [11]): 10 | Blackgrass plant response rating (blackgrass; [12]): 0 | Plant response rating, Ducksalad (0 to 10 scale, 0 is no effect, 10 is complete control) (duck salad; [1]): 0 | Ducksalad plant response rating (0 to 10 scale, 0 is no effect, 10 is complete control) (duck salad; [2]): 0 | Ducksalad plant response rating (duck salad; [3]): 0 | Ducksalad plant response rating (duck salad; [4]): 0 | Wild oats plant response rating (wild oat; [7]): 2 | Plant response rating, Wild oats (wild oat; [8]): 0 | Plant response rating, Wild oats (wild oat; [9]): 0 | Wild oats plant response rating (wild oat; [10]): 2 | Wild oats plant response rating (wild oat; [11]): 7 | Plant response rating, B. signalgrass (surinam grass; [5]): 0 | Plant response rating, B. signalgrass (surinam grass; [6]): 1 | B. signalgrass plant response rating (surinam grass; [7]): 6 | Plant response rating, B. signalgrass (surinam grass; [8]): 0 | Plant response rating, B. signalgrass (surinam grass; [9]): 0 | B. signalgrass plant response rating (surinam grass; [13]): 1 | B. signalgrass plant response rating (surinam grass; Preemergence, Rate 500 g/ha, scale of 0 to 10 where 0 is no effect and 10 is complete control): 5 | B. signalgrass plant response rating (surinam grass; [12]): 0 | Plant response rating, Nutsedge (purple nutsedge; [6]): 0 | Nutsedge plant response rating (purple nutsedge; [7]): 0 | Plant response rating, Nutsedge (purple nutsedge; [8]): 0 | Plant response rating, Nutsedge (purple nutsedge; [9]): 0 | Nutsedge plant response rating (purple nutsedge; [10]): 0 | Plant response rating, Barnyardgrass (0 to 10 scale, 0 is no effect, 10 is complete control) (bamyardgrass; [1]): 0 | Barnyardgrass plant response rating (0 to 10 scale, 0 is no effect, 10 is complete control) (bamyardgrass; [2]): 0 | Barnyardgrass plant response rating (bamyardgrass; [3]): 0 | Barnyardgrass plant response rating (bamyardgrass; [4]): 0 | Plant response rating, Morningglory (morningglory; [6]): 7 | Morningglory plant response rating (morningglory; [7]): 8 | Plant response rating, Morningglory (morningglory; [8]): 0 | Plant response rating, Morningglory (morningglory; [9]): 0 | Morningglory plant response rating (morningglory; [10]): 0 | Morningglory plant response rating (morningglory; [11]): 0 | Plant response rating, Giant foxtail (giant foxtail; [6]): 6 | Giant foxtail plant response rating (giant foxtail; [7]): 9 | Plant response rating, Giant foxtail (giant foxtail; [8]): 2 | Plant response rating, Giant foxtail (giant foxtail; [9]): 9 | Giant foxtail plant response rating (giant foxtail; [10]): 10 | Giant foxtail plant response rating (giant foxtail; [11]): 10 | Giant foxtail plant response rating (giant foxtail; [12]): 3 | Wheat plant response rating (wheat; [7]): 0 | Plant response rating, Wheat (wheat; [8]): 0 | Plant response rating, Wheat (wheat; [9]): 0 | Wheat plant response rating (wheat; [10]): 0 | Wheat plant response rating (wheat; [11]): 0 | Plant response rating, Velvetleaf (velvetleaf; [6]): 0 | Velvetleaf plant response rating (velvetleaf; [7]): 0 | Plant response rating, Velvetleaf (velvetleaf; [8]): 0 | Plant response rating, Velvetleaf (velvetleaf; [9]): 0 | Velvetleaf plant response rating (velvetleaf; [10]): 0 | Velvetleaf plant response rating (velvetleaf; [11]): 0
